What was measured:
Assay type in all cases: functional, cell-based
HT-29 [1] = experiment: Antiproliferative activity against human HT-29 cells assessed as cell growth inhibition measured after 48 hrs by SRB assay; settings: HT-29, 48 h, read-out: IC50
MCF7 [2] = experiment: Antiproliferative activity against human MCF7 cells assessed as cell growth inhibition measured after 48 hrs by SRB assay; settings: MCF7, 48 h, read-out: IC50
M21 [3] = experiment: Antiproliferative activity against human M21 cells assessed as cell growth inhibition measured after 48 hrs by SRB assay; settings: M21, 48 h
HT-1080 [4] = experiment: Antiproliferative activity against human HT-1080 cells assessed as cell growth inhibition measured after 48 hrs by SRB assay; settings: HT-1080, 48 h
HT-29 [5] = experiment: Antiproliferative activity against human HT-29 cells assessed as cell growth inhibition measured after 48 hrs in presence of uridine by SRB assay; settings: HT-29, 48 h
MCF7 [6] = experiment: Antiproliferative activity against human MCF7 cells assessed as cell growth inhibition measured after 48 hrs in presence of uridine by SRB assay; settings: MCF7, 48 h
HT-1080 [7] = experiment: Antiproliferative activity against human HT-1080 cells assessed as cell growth inhibition measured after 48 hrs in presence of uridine by SRB assay; settings: HT-1080, 48 h
M21 [8] = experiment: Antiproliferative activity against human M21 cells assessed as cell growth inhibition measured after 48 hrs in presence of uridine by SRB assay; settings: M21, 48 h

IC50 (HT-29 [1]): 75 µM | IC50 (MCF7 [2]): 55 µM | IC50 (HT-1080 [4]): 30 µM | IC50 (HT-29 [5]): 75 µM | IC50 (MCF7 [6]): 57 µM | IC50 (HT-1080 [7]): 38 µM
SMILES: Cc1oncc1C(=O)Nc1ccc(C(F)(F)F)cc1 [LEFLUNOMIDE]
IC50 (M21 [3]): 83 µM | IC50 (M21 [8]): 83 µM
